EP0475531A1, “Benzoic acid phenylester compounds and elastase inhibiting compositions containing the same” (Asahi Kasei Kogyo Kabushiki Kaisha, priority 1990, dated 1992)

Target: T1, human leukocyte elastase (Homo sapiens, UniProt P08246)
T1 sequence (P08246 30-267): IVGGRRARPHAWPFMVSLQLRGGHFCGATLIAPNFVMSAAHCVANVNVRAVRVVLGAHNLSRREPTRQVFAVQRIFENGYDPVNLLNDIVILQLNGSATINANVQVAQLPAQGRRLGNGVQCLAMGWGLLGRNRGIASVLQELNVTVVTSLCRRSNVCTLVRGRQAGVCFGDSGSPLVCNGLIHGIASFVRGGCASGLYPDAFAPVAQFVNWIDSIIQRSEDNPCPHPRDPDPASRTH
Assay: in vitro human leukocyte elastase inhibiting activity (fluorogenic substrate, method of JP-A-2-101017 with slight modification)
Format: biochemical
Details: not given
Protocol: Thus, methoxysuccinyl-Ala-Ala-Pro-Val-7-amido-4-methylcoumarin was used as a substrate for human leukocyte elastase and the 50% inhibitory concentration (IC₅₀) was measured. The enzymatic reaction was carried out in 0.2 M Tris-hydrochloride buffer (containing 0.02 M CaCl₂ and 0.005% Triton X-100) at pH 7.2. Each mixture of test compound solution and the enzyme solution was incubated at 25°C for 20 minutes.

| Compound | IC50 [nM] |
| --- | --- |
| CC(C)C(=O)Nc1ccc(C(=O)Oc2cc([N+](=O)[O-])ccc2[N+](=O)[O-])cc1 [Compound 50, 2,5-dinitrophenyl 4-(isobutanoylamino)benzoate] | 4.7 |
| CN(C)C(=O)Oc1cc(Cl)cc(OC(=O)c2ccc(NC(=O)C(C)(C)C)cc2)c1 [Compound 58, 3-chloro-5-(dimethylaminocarbonyloxy)phenyl 4-(pivaloylamino)benzoate] | 3.5 |
| CC(C)C(=O)Nc1ccc(C(=O)Oc2cc(Cl)cc(OC(=O)N(C)C)c2)cc1 [Compound 81, 3-chloro-5-(dimethylaminocarbonyloxy)phenyl 4-(isobutanoylamino)benzoate] | 6.5 |

Same assay, conditions: 50% inhibitory concentration; substrate methoxysuccinyl-Ala-Ala-Pro-Val-7-amido-4-methylcoumarin; 0.2 M Tris-hydrochloride buffer (0.02 M CaCl2, 0.005% Triton X-100), pH 7.2; compound and enzyme incubated at 25°C for 20 minutes; read-out: IC50

| Compound | IC50 [nM] |
| --- | --- |
| O=C(Oc1cc(Cl)cc(Cl)c1)c1ccc(NC(=O)C2CCCCC2C(=O)O)cc1 (stereo not drawn) [Compound 44, 3,5-dichlorophenyl 4-(2-hydroxycarbonylcyclohexanecarbonylamino)benzoate] | 18 |
| CC(C)(CCl)C(=O)Nc1ccc(C(=O)Oc2cc(Cl)cc(Cl)c2)cc1 [Compound 45, 3,5-dichlorophenyl 4-(3-chloro-2,2-dimethylpropanoylamino)benzoate] | 18 |
| CC(C)(CC#N)C(=O)Nc1ccc(C(=O)Oc2cc(Cl)cc(Cl)c2)cc1 [Compound 46, 3,5-dichlorophenyl 4-(3-cyano-2,2-dimethylpropanoylamino)benzoate] | 6.7 |
| CC(C)(C)OC(=O)Nc1ccc(C(=O)Oc2cc(C=O)ccc2[N+](=O)[O-])cc1 [Compound 47, 3-formyl-6-nitrophenyl 4-(tert-butoxycarbonylamino)benzoate] | 3.8 |
| COc1ccc(COC(=O)c2ccc([N+](=O)[O-])c(OC(=O)c3ccc(NC(=O)C(C)C)cc3)c2)cc1 [Compound 56] | 8.4 |
| CC(C)(C)C(=O)Nc1ccc(C(=O)Oc2cc(Cl)cc(OC(=O)C3CC3)c2)cc1 [Compound 57, 3-chloro-5-(cyclopropanecarbonyloxy)phenyl 4-(pivaloylamino)benzoate] | 2.9 |
| CC(C)(C)C(=O)Nc1ccc(C(=O)Oc2cc(C=O)ccc2[N+](=O)[O-])cc1 [Compound 60, 3-formyl-6-nitrophenyl 4-(pivaloylamino)benzoate] | 4.2 |
| CC(=O)Oc1cc(Cl)cc(OC(=O)c2ccc(NC(=O)C(C)C)cc2)c1 [Compound 74, 3-acetoxy-5-chlorophenyl 4-(isobutanoylamino)benzoate] | 3.3 |
| CC(C)C(=O)Nc1ccc(C(=O)Oc2cc(Cl)cc(OC(=O)C(C)C)c2)cc1 [Compound 76, 3-chloro-5-isobutanoyloxyphenyl 4-(isobutanoylamino)benzoate] | 1.9 |
| CC(C)C(=O)Nc1ccc(C(=O)Oc2cc(Cl)cc(OC(=O)C3CC3)c2)cc1 [Compound 77, 3-chloro-5-(cyclopropanecarbonyloxy)phenyl 4-(isobutanoylamino)benzoate] | 3.8 |
| CC(C)C(=O)Nc1ccc(C(=O)Oc2cc(Cl)cc(OC(=O)C3(C)CC3)c2)cc1 [Compound 78, 3-chloro-5-(1-methylcyclopropanecarbonyloxy)phenyl 4-(isobutanoylamino)benzoate] | 9.6 |
| CC(C)C(=O)Nc1ccc(C(=O)Oc2cc(Cl)cc(OC(=O)C3CCCCC3)c2)cc1 [Compound 79, 3-chloro-5-(cyclohexanecarbonyloxy)phenyl 4-(isobutanoylamino)benzoate] | 110 |
| CC(C)C(=O)Nc1ccc(C(=O)Oc2cc(Cl)cc(OC(=O)C=Cc3ccccc3)c2)cc1 [Compound 80, 3-cinnamoyloxy-5-chlorophenyl 4-(isobutanoylamino)benzoate] | 24 |
| CC(C)C(=O)Nc1ccc(C(=O)Oc2cc(Cl)cc(OS(C)(=O)=O)c2)cc1 [Compound 82, 3-chloro-5-(methanesulfonyloxy)phenyl 4-(isobutanoylamino)benzoate] | 18 |
| CCS(=O)(=O)Oc1cc(Cl)cc(OC(=O)c2ccc(NC(=O)C(C)C)cc2)c1 [Compound 83, 3-chloro-5-(ethanesulfonyloxy)phenyl 4-(isobutanoylamino)benzoate] | 25 |
| CC(C)C(=O)Nc1ccc(C(=O)Oc2cc(Cl)cc(OS(=O)(=O)Cc3ccccc3)c2)cc1 [Compound 84, 3-chloro-5-(phenylmethanesulfonyloxy)phenyl 4-(isobutanoylamino)benzoate] | 21 |
| CC(C)C(=O)Nc1ccc(C(=O)Oc2cc(Cl)cc(OS(=O)(=O)c3ccccc3)c2)cc1 [Compound 85, 3-benzenesulfonyloxy-5-chlorophenyl 4-(isobutanoylamino)benzoate] | 24 |
| CC(C)C(=O)Nc1ccc(C(=O)Oc2cc(Cl)cc(OS(=O)(=O)C=Cc3ccccc3)c2)cc1 [Compound 86, 3-chloro-5-(β-styrenesulfonyloxy)phenyl 4-(isobutanoylamino)benzoate] | 24 |
| CC(C)C(=O)Nc1ccc(C(=O)Oc2cc(Cl)cc(OS(=O)(=O)c3cccs3)c2)cc1 [Compound 87, 3-chloro-5-(2-thiophenesulfonyloxy)phenyl 4-(isobutanoylamino)benzoate] | 19 |
| CC(C)C(=O)Nc1ccc(C(=O)Oc2cc(Cl)cc(OCc3ccccc3)c2)cc1 [Compound 88, 3-benzyloxy-5-chlorophenyl 4-(isobutanoylamino)benzoate] | 48 |

Results, then the molecule that gave them:

| IC50 [nM] | Compound |
| --- | --- |
| 16 | CC(C)C(=O)Nc1ccc(C(=O)Oc2ccccc2[N+](=O)[O-])cc1 [Compound 48, 6-nitrophenyl 4-(isobutanoylamino)benzoate] |
| 180 | CC(C)C(=O)Nc1ccc(C(=O)Oc2cccc(O)c2[N+](=O)[O-])cc1 [Compound 49, 5-hydroxy-6-nitrophenyl 4-(isobutanoylamino)benzoate] |
| 2.6 | CC(C)C(=O)Nc1ccc(C(=O)Oc2cc(F)ccc2[N+](=O)[O-])cc1 [Compound 51, 3-fluoro-6-nitrophenyl 4-(isobutanoylamino)benzoate] |
| 15 | Cc1ccc([N+](=O)[O-])c(OC(=O)c2ccc(NC(=O)C(C)C)cc2)c1 [Compound 52, 3-methyl-6-nitrophenyl 4-(isobutanoylamino)benzoate] |
| 3.4 | CC(C)C(=O)Nc1ccc(C(=O)Oc2cc(C=O)ccc2[N+](=O)[O-])cc1 [Compound 53, 3-formyl-6-nitrophenyl 4-(isobutanoylamino)benzoate] |
| 2.1 | CC(C)C(=O)Nc1ccc(C(=O)Oc2cc(C(=O)O)ccc2[N+](=O)[O-])cc1 [Compound 54, 3-hydroxycarbonyl-6-nitrophenyl 4-(isobutanoylamino)benzoate] |
| 3.6 | COC(=O)c1ccc([N+](=O)[O-])c(OC(=O)c2ccc(NC(=O)C(C)C)cc2)c1 [Compound 55, 3-methoxycarbonyl-6-nitrophenyl 4-(isobutanoylamino)benzoate] |
| 2.7 | CC(C)(C)C(=O)Nc1ccc(C(=O)Oc2cc(F)ccc2[N+](=O)[O-])cc1 [Compound 59, 3-fluoro-6-nitrophenyl 4-(pivaloylamino)benzoate] |
| 9.3 | CC(C)C(=O)Nc1ccc(C(=O)Oc2ccccc2C#N)cc1 [Compound 61, 2-cyanophenyl 4-(isobutanoylamino)benzoate] |
| 1.3 | CC(C)C(=O)Nc1ccc(C(=O)Oc2cc(Cl)ccc2C#N)cc1 [Compound 62, 3-chloro-6-cyanophenyl 4-(isobutanoylamino)benzoate] |
| 97 | COC(=O)c1ccc(Cl)cc1OC(=O)c1ccc(NC(=O)C(C)C)cc1 [Compound 63, 3-chloro-6-(methoxycarbonyl)phenyl 4-(isobutanoylamino)benzoate] |
| 220 | CC(C)C(=O)Nc1ccc(C(=O)Oc2cc(C(F)(F)F)cc(C(F)(F)F)c2)cc1 [Compound 64] |
| 4.5 | CC(C)C(=O)Nc1ccc(C(=O)Oc2cc(Cl)cc(Cl)c2Cl)cc1 [Compound 65, 2,3,5-trichlorophenyl 4-(isobutanoylamino)benzoate] |
| 94 | CC(C)C(=O)Nc1ccc(C(=O)Oc2c(Cl)cccc2Cl)cc1 [Compound 66, 2,6-dichlorophenyl 4-(isobutanoylamino)benzoate] |
| 88 | CC(C)C(=O)Nc1ccc(C(=O)Oc2cccc(F)c2F)cc1 [Compound 67, 2,3-difluorophenyl 4-(isobutanoylamino)benzoate] |
| 110 | CC(C)C(=O)Nc1ccc(C(=O)Oc2cc(F)ccc2F)cc1 [Compound 68, 2,5-difluorophenyl 4-(isobutanoylamino)benzoate] |
| 25 | CC(C)C(=O)Nc1ccc(C(=O)Oc2c(F)cccc2F)cc1 [Compound 69, 2,6-difluorophenyl 4-(isobutanoylamino)benzoate] |
| 26 | CC(C)C(=O)Nc1ccc(C(=O)Oc2cc(F)cc(F)c2)cc1 [Compound 70, 3,5-difluorophenyl 4-(isobutanoylamino)benzoate] |
| 310 | CC(C)C(=O)Nc1ccc(C(=O)Oc2cccc(F)c2)cc1 [Compound 71, 3-fluorophenyl 4-(isobutanoylamino)benzoate] |
| 21 | CC(C)C(=O)Nc1ccc(C(=O)Oc2cccc(Br)c2)cc1 [Compound 72, 3-bromophenyl 4-(isobutanoylamino)benzoate] |
| 110 | CC(C)C(=O)Nc1ccc(C(=O)Oc2cc(O)cc(Cl)c2)cc1 [Compound 73, 3-chloro-5-hydroxyphenyl 4-(isobutanoylamino)benzoate] |
| 2.5 | CCC(=O)Oc1cc(Cl)cc(OC(=O)c2ccc(NC(=O)C(C)C)cc2)c1 [Compound 75, 3-chloro-5-propanoyloxyphenyl 4-(isobutanoylamino)benzoate] |
